Results reported in US6756382B2, “Amide substituted imidazoquinolines” (3M Innovative Properties Company, priority 1999, dated 2004).

What was measured:
interferon (α) [1] = test: Cytokine induction in human cells: interferon secreted by PBMCs, bioassay (A549 cells challenged with encephalomyocarditis virus); type: cell-based; conditions: PBMC, incubated 18 to 24 hours, interferon determined using the bioassay method, read-out: Lowest Effective Concentration (μM) Interferon
Excerpt: An in vitro human blood cell system was used to assess cytokine induction by compounds of the invention. Activity is based on the measurement of interferon and tumor necrosis factor (α) (IFN and TNF, respectively) secreted into culture media as described by Testerman et. al. In “Cytokine Induction by the Immunomodulators Imiquimod and S-27609”, Journal of Leukocyte Biology, 58, 365-372 (September, 1995).
Whole blood is collected by venipuncture into EDTA vacutainer tubes from healthy human donors. Peripheral blood mononuclear cells (PBMCs) are separated from whole blood by density gradient centrifugation using Histopaque®-1077 (Sigma Chemicals, St. Louis, Mo.). The PBMCs are suspended at 3-4×10^6 cells/mL in RPMI 1640 medium containing 10% fetal bovine serum, 2 mM L-glutamine and 1% penicillin/streptomycin solution (RPMI complete). The PBMC suspension is added to 48 well flat bottom sterile tissue culture plates (Costar, Cambridge, Mass. or Becton Dickinson Labware, Lincoln Park, N.J.) containing an equal volume of RPMI complete media containing test compound.
The compounds are solubilized in dimethyl sulfoxide (DMSO). The DMSO concentration should not exceed a final concentration of 1% for addition to the culture wells.
The solution of test compound is added at 60 μM to the first well containing RPMI complete and serial (three fold or ten fold) dilutions are made. The PBMC suspension is then added to the wells in an equal volume, bringing the test compound concentrations to the desired range. The final concentration of PBMC suspension is 1.5-2×10^6 cells/mL. The plates are covered with sterile plastic lids, mixed gently and then incubated for 18 to 24 hours at 37° C. in a 5% carbon dioxide atmosphere.
Following incubation the plates are centrifuged for 5-10 minutes at 1000 rpm (˜200×g) at 4° C. The cell culture supernatant is removed with a sterile polypropylene pipet and transferred to sterile polypropylene tubes. Samples are maintained at −30 to −70° C. until analysis. The samples are analyzed for interferon (α) by either ELISA or bioassay and for tumor necrosis factor (α) by ELISA.
Interferon is determined by bioassay using A549 human lung carcinoma cells challenged with encephalomyocarditis. The details of the bioassay method have been described by G. L. Brennan and L. H. Kronenberg in “Automated Bioassay of Interferons in Micro-test Plates”, Biotechniques, June/July, 78, 1983, incorporated herein by reference. Briefly stated the method is as follows: A549 cells are incubated with dilutions of samples or a standard interferon at 37° C. for 24 hours. The incubated cells are then infected with an inoculum of encephalomyocarditis virus. The infected cells are incubated for an additional 24 hours at 37° C. before evaluating for viral cytopathic effect. The viral cytopathic effect is quantified by staining with crystal violet followed by visual scoring of the plates. Results are expressed as alpha reference units/mL based on the value obtained for NIH Human Leukocyte IFN standard.
The table below lists the lowest concentration found to induce interferon and the lowest concentration found to induce tumor necrosis factor for each compound. […] Unless otherwise indicated, the interferon biosynthesis was determined by ELISA.

[2] = tested on: tumor necrosis factor (α); test: Cytokine induction in human cells: tumor necrosis factor (α) secreted by PBMCs, ELISA; type: cell-based; conditions: PBMC, incubated 18 to 24 hours, TNF determined by ELISA, read-out: Lowest Effective Concentration (μM) Tumor Necrosis Factor
Outline: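 Human donor PBMCs at final 1.5-2×10^6 cells/mL in RPMI with 10% FBS incubated 18 to 24 h at 37° C. with serially diluted compound, DMSO at most 1% final. Supernatant TNF-α measured by ELISA; value is the lowest concentration inducing TNF.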

interferon (α) [3] = test: Cytokine induction in human cells: interferon secreted by PBMCs, ELISA; type: cell-based; conditions: PBMC, incubated 18 to 24 hours, interferon determined by ELISA, read-out: Lowest Effective Concentration (μM) Interferon
Outline: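 Human donor PBMCs at 1.5-2×10^6 cells/mL final in RPMI with 10% FBS, exposed to serially diluted compound (≤1% DMSO) for 18–24 h at 37 °C, 5% CO2. Supernatant interferon (α) measured by ELISA; value is lowest concentration inducing interferon.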

Nc1nc2ccccc2c2c1ncn2CCCCNC(=O)CCC1CCCC1 [Example 83]
minimal effective concentration (interferon (α) [1]): 1.11 µM

Cc1ccc(C(=O)NCCCCn2cnc3c(N)nc4ccccc4c32)cc1 [Example 77]
minimal effective concentration (interferon (α) [1]): 1.11 µM | minimal effective concentration [2]: 10 µM

CC(C)(C)CC(=O)NCCCCn1cnc2c(N)nc3ccccc3c21 [Example 80]
minimal effective concentration (interferon (α) [1]): 1.11 µM | minimal effective concentration [2]: 10 µM

Nc1nc2ccccc2c2c1ncn2CCCCNC(=O)c1ccc(C(F)(F)F)cc1 [Example 75]
minimal effective concentration (interferon (α) [1]): 1.11 µM

Nc1nc2ccccc2c2c1ncn2CCCCNC(=O)c1ccc(Cl)cc1 [Example 73]
minimal effective concentration (interferon (α) [1]): 0.37 µM | minimal effective concentration [2]: 10 µM

Nc1nc2ccccc2c2c1ncn2CCCCNC(=O)c1cccc2cccnc12 [Example 45, N^8-[4-(4-Amino-1H-imidazo[4,5-c]quinolin-1-yl)butyl]-8-quinolinecarboxamide]
minimal effective concentration (interferon (α) [3]): 3.33 µM | melting point: 91 to 93 °C | minimal effective concentration [2]: > 30 µM

COCCc1nc2c(N)nc3ccccc3c2n1CCCNC(=O)c1cc2ccccc2cn1 [Example 192, N-{3-[4-amino-2-(2-methoxyethyl)-1H-imidazo[4,5-c]quinolin-1-yl]propyl}isoquinoline-3-carboxamide]
minimal effective concentration (interferon (α) [3]): 0.12 µM | melting point: 198 to 198.5 °C | minimal effective concentration [2]: 0.37 µM

Nc1nc2ccccc2c2c1ncn2CCCCNC(=O)CCCCC1SCC2NC(=O)NC21 (stereo not drawn) [Example 25, N^1-[4-(4-Amino-1H-imidazo[4,5-c]quinolin-1-yl)butyl]-5-(2-oxoperhydrothieno[3,4-d]imidazol-4-yl)pentanamide]
minimal effective concentration (interferon (α) [3]): 3.33 µM | melting point: 104 to 106 °C | minimal effective concentration [2]: > 30 µM

CCOc1ccc2ccccc2c1C(=O)NCCCCn1cnc2c(N)nc3ccccc3c21 [Example 31, N^1-[4-(4-Amino-1H-imidazo[4,5-c]quinolin-1-yl)butyl]-2-ethoxy-1-naphthamide]
minimal effective concentration (interferon (α) [3]): 1.11 µM | melting point: 219 °C (dec.) | minimal effective concentration [2]: > 30 µM

COCCc1nc2c(N)nc3ccccc3c2n1CCCCNC(=O)c1cnc2ccccc2c1 [Example 182, N-{4-[4-amino-2-(2-methoxyethyl)-1H-imidazo[4,5-c]quinolin-1-yl]butyl}quinoline-3-carboxamide]
minimal effective concentration (interferon (α) [3]): 0.01 µM | melting point: 114 to 116 °C | minimal effective concentration [2]: 0.01 µM

Nc1nc2ccccc2c2c1ncn2CCCCNC(=O)c1ccccc1Oc1ccccc1 [Example 14, N^1-[4-(4-Amino-1H-imidazo[4,5-c]quinolin-1-yl)butyl]-2-phenoxybenzamide]
minimal effective concentration (interferon (α) [3]): 3.33 µM | melting point: 93 to 94 °C | minimal effective concentration [2]: > 30 µM

COc1ccc(C(=O)NCCCCn2cnc3c(N)nc4ccccc4c32)c(OC)n1 [Example 44, N^3-[4-(4-Amino-1H-imidazo[4,5-c]quinolin-1-yl)butyl]-2,6-dimethoxynicotnamide]
minimal effective concentration (interferon (α) [3]): 1.11 µM | melting point: 175 to 177 °C | minimal effective concentration [2]: > 30 µM

Nc1nc2ccccc2c2c1nc(CCCOc1ccccc1)n2CCCNC(=O)c1ccccc1 [Example 194, N-{3-[4-amino-2-(3-phenoxypropyl)-1H-imidazo[4,5-c]quinolin-1-yl]propyl}benzamide]
minimal effective concentration (interferon (α) [3]): > 30 µM | melting point: 192 to 194 °C | minimal effective concentration [2]: 10 µM

Cc1nc2c(N)nc3ccccc3c2n1CCCNC(=O)c1ccccc1 [Example 22, N^1-[3-(4-Amino-2-methyl-1H-imidazo[4,5-c]quinolin-1-yl)propyl]benzamide]
minimal effective concentration (interferon (α) [3]): 0.37 µM | melting point: 230 to 231.4 °C | minimal effective concentration [2]: 10 µM

CC(C)(C)c1ccc(C(=O)NCCCCn2cnc3c(N)nc4ccccc4c32)cc1 [Example 76]
minimal effective concentration (interferon (α) [1]): 3.33 µM

Nc1nc2ccccc2c2c1ncn2CCCCNC(=O)c1ccc(C(=O)c2ccccc2)cc1 [Example 20, N^1-[4-(4-Amino-1H-imidazo[4,5-c]quinolin-1-yl)butyl]-4-benzoylbenzamide]
minimal effective concentration (interferon (α) [3]): 3.33 µM | melting point: 159 to 161 °C | minimal effective concentration [2]: > 30 µM

CCCCc1nc2c(N)nc3ccccc3c2n1CCCCCCCCNC(=O)c1ccccc1 [Example 186, N-[8-(4-amino-2-butyl-1H-imidazo[4,5-c]quinolin-1-yl)octyl]benzamide]
minimal effective concentration (interferon (α) [3]): 0.04 µM | melting point: 149.5 to 151.3 °C | minimal effective concentration [2]: 0.12 µM

Nc1nc2ccccc2c2c1ncn2CCCCNC(=O)COc1ccc(C(=O)c2ccccc2)cc1 [Example 18, N^1-[4-(4-Amino-1H-imidazo[4,5-c]quinolin-1-yl)butyl]-2-(4-benzoylphenoxy)acetamide]
minimal effective concentration (interferon (α) [3]): 3.33 µM | melting point: 73 to 98 °C | minimal effective concentration [2]: > 30 µM

Nc1nc2ccccc2c2c1ncn2CCCCNC(=O)c1ccccc1 [Example 1, N^1-[4-(4-Amino-1H-imidazo[4,5-c]quinolin-1-yl)butyl]benzamide]
minimal effective concentration (interferon (α) [3]): 0.37 µM | melting point: 210 to 212 °C | minimal effective concentration [2]: 10 µM

COCCc1nc2c(N)nc3ccccc3c2n1CCCCNC(=O)c1cc2ccccc2cn1 [Example 181, N-{4-[4-amino-2-(2-methoxyethyl)-1H-imidazo[4,5-c]quinolin-1-yl]butyl}isoquinoline-3-carboxamide]
minimal effective concentration (interferon (α) [3]): 0.01 µM | melting point: 199 to 200 °C | minimal effective concentration [2]: 1.11 µM

Nc1nc2ccccc2c2c1ncn2CCCCNC(=O)COc1ccccc1 [Example 35, N^1-[4-(4-Amino-1H-imidazo[4,5-c]quinolin-1-yl)butyl]-2-phenoxyacetamide]
minimal effective concentration (interferon (α) [3]): 1.11 µM | melting point: 61.5 °C (dec.) | minimal effective concentration [2]: > 30 µM

Nc1nc2ccccc2c2c1ncn2CCNC(=O)c1ccccc1 [Example 13, N^1-[2-(4-Amino-1H-imidazo[4,5-c]quinolin-1-yl)ethyl]benzamide]
minimal effective concentration (interferon (α) [3]): 1.11 µM | melting point: 295 °C | minimal effective concentration [2]: 3.33 µM

CCCCc1nc2c(N)nc3ccccc3c2n1CCCCNC(=O)CCCCC1SCC2NC(=O)NC21 (stereo not drawn) [Example 24, N^1-[4-(4-Amino-2-butyl-1H-imidazo[4,5-c]quinolin-1-yl)butyl]-5-(2-oxoperhydrothieno[3,4-d]imidazol-4-yl)pentanamide]
minimal effective concentration (interferon (α) [3]): 0.12 µM | melting point: 214 to 215 °C | minimal effective concentration [2]: 3.33 µM

N#Cc1cccc(C(=O)NCCCCn2cnc3c(N)nc4ccccc4c32)c1 [Example 33, N^1-[4-(4-Amino-1H-imidazo[4,5-c]quinolin-1-yl)butyl]-3-cyanobenzamide]
minimal effective concentration (interferon (α) [3]): 0.37 µM | melting point: 200 to 201 °C (dec.) | minimal effective concentration [2]: > 30 µM

COCCc1nc2c(N)nc3ccccc3c2n1CCCCCCCCNC(=O)c1ccccc1 [Example 187, N-{8-[4-amino-2-(2-methoxyethyl)-1H-imidazo[4,5-c]quinolin-1-yl]octyl}benzamide]
minimal effective concentration (interferon (α) [3]): 0.01 µM | melting point: 133.4 to 137.5 °C | minimal effective concentration [2]: 0.01 µM

N#Cc1ccc(C(=O)NCCCCn2cnc3c(N)nc4ccccc4c32)cc1 [Example 32, N^1-[4-(4-Amino-1H-imidazo[4,5-c]quinolin-1-yl)butyl]-4-cyanobenzamide]
minimal effective concentration (interferon (α) [3]): 3.33 µM | melting point: 222.8 to 225.3 °C | minimal effective concentration [2]: > 30 µM
